In PubChem BioAssay (NCI) one finds GI50 and TGI data, which are given here for 13 compounds.

SMILES strings stand for the structures.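 Cells were grown in 96-well plates and exposed to each compound for 48 hours at five concentrations; endpoints were interpolated linearly between bracketing concentrations, or set to the highest concentration if not reached. GI50 is the concentration that inhibits growth by half. At the TGI there is no net growth.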

Among the test systems are BT-549 breast; KM12 colon; A549 NSCLC; K-562 leukemia; MCF7 breast; SK-OV-3 ovarian; MDA-MB-231 breast; EKVX NSCLC; HCT-15 colon; SR leukemia.
Assay in all cases: NCI anticancer screen, dose series, 48 h

Turning to `CC12OC(C(=O)C13CCC3)C1C(=O)c3ccccc3C(=O)C12` (configuration not stated), the GI50 is above 100 µM with BT-549 breast; 32.4 µM in the assay on KM12 colon; above 100 µM in the assay on A549 NSCLC; 58.1 µM in the assay with K-562 leukemia; above 100 µM in the assay on MCF7 breast; above 100 µM with SK-OV-3 ovarian. For the same compound, the GI50 in the assay with MDA-MB-231 breast is 10.4 µM; with EKVX NSCLC it was above 100 µM; in the assay on HCT-15 colon, above 100 µM. Also, the TGI with BT-549 breast, in the assay with KM12 colon, in the assay with A549 NSCLC, in the assay with K-562 leukemia, in the assay with MCF7 breast and in the assay with SK-OV-3 ovarian was above 100 µM throughout. In addition, the TGI in the assay with MDA-MB-231 breast, in the assay on EKVX NSCLC and with HCT-15 colon was above 100 µM throughout.
Consider `c1cnc2[nH]cc(-c3csc(-c4cn(CCCN5CCCCC5)c5ccccc45)n3)c2c1`, for which the GI50 in the assay on BT-549 breast is 1.68 µM; in the assay on SR leukemia it was 1.89 µM; in the assay with KM12 colon, 1.61 µM; in the assay with A549 NSCLC, 1.97 µM; in the assay with K-562 leukemia it was 1.74 µM; in the assay with SK-OV-3 ovarian it was 1.8 µM. Moreover, the GI50 is 1.63 µM in the assay on MDA-MB-231 breast and 1.72 µM with HCT-15 colon. In addition, the TGI is 3.24 µM in the assay with BT-549 breast; 3.74 µM with SR leukemia; 3.13 µM in the assay on KM12 colon; 3.63 µM in the assay with A549 NSCLC; 3.52 µM in the assay on K-562 leukemia; 3.36 µM in the assay with SK-OV-3 ovarian. The TGI in the assay with MDA-MB-231 breast is 3.11 µM; with HCT-15 colon, 3.18 µM.
As for `COc1ccc(C2ONC3=NCCN32)cc1` (configuration not stated), the GI50 in the assay on BT-549 breast is 94.1 µM; in the assay on KM12 colon it was 54.7 µM; in the assay on A549 NSCLC it was 86.9 µM; in the assay on K-562 leukemia, 38.3 µM; in the assay with MCF7 breast, 61.1 µM; in the assay with SK-OV-3 ovarian, 40.7 µM. Moreover, the GI50 in the assay on MDA-MB-231 breast is above 100 µM; with EKVX NSCLC, above 100 µM; with HCT-15 colon, 29.2 µM. For the same compound, the TGI in the assay with BT-549 breast, in the assay with KM12 colon, in the assay with A549 NSCLC, in the assay on K-562 leukemia, with MCF7 breast and in the assay with SK-OV-3 ovarian was above 100 µM in each case. In addition, the TGI with MDA-MB-231 breast, with EKVX NSCLC and with HCT-15 colon was above 100 µM throughout.
As to `COc1cc([C@H]2c3[nH]c4ccccc4c3C[C@H]3COC(=O)N32)cc(OC)c1O`, the TGI in the assay with BT-549 breast was above 100 µM; with SR leukemia it was 0.285 µM; in the assay with KM12 colon, 20.7 µM; with A549 NSCLC it was 29.5 µM; in the assay on K-562 leukemia, above 90.3 µM; in the assay with MCF7 breast, 37.1 µM. The TGI came to 49.8 µM in the assay on MDA-MB-231 breast, 22.7 µM in the assay with EKVX NSCLC and 38.5 µM in the assay on HCT-15 colon.
Regarding `O=c1[nH]c2cc(Cl)c(Cl)cc2n2cc3ccccc3c12`, the GI50 in the assay with BT-549 breast was 26.5 µM; in the assay on SR leukemia, 17.3 µM; in the assay with KM12 colon, 17.3 µM; in the assay with A549 NSCLC it was 18.9 µM; in the assay on MCF7 breast it was 21.4 µM; with SK-OV-3 ovarian, 18 µM. Moreover, the values for the GI50 in the assay on MDA-MB-231 breast, in the assay on EKVX NSCLC and with HCT-15 colon were 17.2 µM, 21.9 µM and 16.6 µM, respectively. Moreover, the TGI worked out at 57.2 µM with BT-549 breast; 39 µM in the assay on SR leukemia; 31.1 µM in the assay on KM12 colon; 34.5 µM with A549 NSCLC; 39.5 µM in the assay with MCF7 breast; 33.1 µM in the assay with SK-OV-3 ovarian. The TGI amounted to 32.7 µM in the assay with MDA-MB-231 breast, 43.5 µM in the assay with EKVX NSCLC and 30.2 µM in the assay with HCT-15 colon.
On to `O=C(Nc1ccc(Cl)cc1)Nc1ccccc1CNc1nc(Nc2ccc(OCCN3CCCC3)cc2)ncc1Cl`, for which the GI50 was 5.87 µM in the assay on BT-549 breast; 1.7 µM with SR leukemia; 1.04 µM with KM12 colon; 1.49 µM in the assay with A549 NSCLC; 1.16 µM with K-562 leukemia; 0.895 µM in the assay with MCF7 breast. For the same compound, the GI50 in the assay with MDA-MB-231 breast was 0.888 µM; in the assay with EKVX NSCLC, 1.55 µM; in the assay with HCT-15 colon it was 1.01 µM. The TGI with BT-549 breast was 12.6 µM; in the assay with SR leukemia, 50 µM; in the assay with KM12 colon, 2.2 µM; in the assay with A549 NSCLC it was 4.49 µM; in the assay on K-562 leukemia, 2.82 µM; in the assay with MCF7 breast it was 1.84 µM. The TGI in the assay on MDA-MB-231 breast came to 1.84 µM; in the assay with EKVX NSCLC it was 6.63 µM; in the assay with HCT-15 colon, 2.6 µM.
On to `CCN(CC)CCOc1ccc(/C=C2\CC3C4CC=C5C[C@@H](OC(C)=O)CC[C@]5(C)C4CC[C@]3(C)C2=O)cc1OC` (some centres not stated), for which the GI50 was 11.4 µM in the assay on BT-549 breast; 1.99 µM in the assay on KM12 colon; 17.7 µM with A549 NSCLC; 1.29 µM in the assay on K-562 leukemia; 29.5 µM with SK-OV-3 ovarian; 21.1 µM with MDA-MB-231 breast. Besides, the GI50 with EKVX NSCLC was 16.7 µM; in the assay with HCT-15 colon, 2.96 µM. In addition, the TGI in the assay on BT-549 breast was 33 µM; with KM12 colon, 4.18 µM; with A549 NSCLC it was 44.9 µM; with K-562 leukemia, 23.6 µM; in the assay on SK-OV-3 ovarian, 95.1 µM; with MDA-MB-231 breast, above 100 µM. The results for the TGI with EKVX NSCLC and in the assay on HCT-15 colon were 36.3 µM and 10 µM, respectively.
With `Fc1c[c-]c(-c2ccccn2)c(F)c1.[CH3-].[Pt+2].c1ccc(P(C[PH+](c2ccccc2)c2ccccc2)c2ccccc2)cc1`, the GI50 was 0.492 µM in the assay with BT-549 breast; 0.421 µM in the assay with KM12 colon; 0.393 µM with A549 NSCLC; 0.365 µM in the assay on K-562 leukemia; 0.577 µM with MCF7 breast; 0.816 µM in the assay with SK-OV-3 ovarian. Also, the GI50 in the assay with MDA-MB-231 breast was 0.724 µM; with EKVX NSCLC it was 0.495 µM; in the assay with HCT-15 colon, 0.975 µM. Further, the TGI in the assay with BT-549 breast worked out at 1.49 µM; in the assay with KM12 colon, 1.25 µM; with A549 NSCLC it was 4.7 µM; with K-562 leukemia, 6.95 µM; in the assay on MCF7 breast it was 2.98 µM; in the assay with SK-OV-3 ovarian, 6.03 µM. In addition, the results for the TGI in the assay on MDA-MB-231 breast, in the assay on EKVX NSCLC and in the assay on HCT-15 colon were 1.78 µM, 1.96 µM and 2.25 µM, respectively.
With `COc1ccc2cc(-c3c(-c4ccncc4)nc(-c4ccc(S(C)=O)cc4C)n3C)ccc2c1` (configuration not stated), the GI50 in the assay with BT-549 breast was above 21.9 µM; with KM12 colon, above 22.3 µM; in the assay with A549 NSCLC it was 15.5 µM; in the assay on K-562 leukemia, 13.4 µM; with MCF7 breast, 14.1 µM; in the assay on SK-OV-3 ovarian, 11.3 µM. Also, the GI50 in the assay with MDA-MB-231 breast was above 25 µM; in the assay with EKVX NSCLC, 8.34 µM; with HCT-15 colon, 16.7 µM. The TGI in the assay with BT-549 breast, in the assay on KM12 colon, with A549 NSCLC, in the assay on K-562 leukemia, with MCF7 breast and with SK-OV-3 ovarian was above 25 µM each time. For the same compound, the TGI with MDA-MB-231 breast, in the assay with EKVX NSCLC and in the assay on HCT-15 colon was above 25 µM in each case.
On to `COc1ccc(-c2cc(/C=C/C(=O)c3cc(OC)c(OC)c(OC)c3)[nH]n2)cc1OC`, for which the GI50 in the assay on BT-549 breast is 1.36 µM; in the assay with SR leukemia, 0.22 µM; with KM12 colon, 0.78 µM; with A549 NSCLC it was 2.39 µM; in the assay with K-562 leukemia, 0.731 µM; in the assay with SK-OV-3 ovarian, 5.47 µM. In addition, the GI50 was 2.02 µM in the assay with MDA-MB-231 breast and 1.19 µM with HCT-15 colon. Also, the TGI in the assay with BT-549 breast was 2.93 µM; in the assay with SR leukemia it was 2.26 µM; with KM12 colon, 2.27 µM; with A549 NSCLC, 9.34 µM; in the assay with K-562 leukemia it was 9.71 µM; in the assay on SK-OV-3 ovarian, 19 µM. The TGI in the assay on MDA-MB-231 breast was 13.5 µM; in the assay with HCT-15 colon, 3.85 µM.
Regarding `NC(=O)c1cc(I)ccc1NC(=O)COc1ccccc1`, the GI50 is 0.644 µM with BT-549 breast; 0.285 µM in the assay with SR leukemia; 0.328 µM in the assay with KM12 colon; 0.63 µM with A549 NSCLC; 0.214 µM in the assay on K-562 leukemia; 0.279 µM in the assay with MCF7 breast. The GI50 with SK-OV-3 ovarian is 3.21 µM; in the assay with MDA-MB-231 breast it was 1.32 µM; in the assay with HCT-15 colon it was 0.33 µM. Also, the TGI in the assay with BT-549 breast is 31.5 µM; in the assay on SR leukemia, above 74.1 µM; in the assay on KM12 colon it was above 100 µM; with A549 NSCLC it was above 100 µM; in the assay with K-562 leukemia, 24.2 µM; with MCF7 breast, above 100 µM. Also, the figures for the TGI in the assay with SK-OV-3 ovarian, with MDA-MB-231 breast and with HCT-15 colon were above 69.1 µM, 26.6 µM and above 100 µM, respectively.
On to `COc1ccc2c(c1)nc1n2C(c2ccc(F)cc2)SC1` (configuration not stated), for which the GI50 in the assay with BT-549 breast is 17.1 µM; in the assay on KM12 colon, 23.3 µM; in the assay with A549 NSCLC it was 25.4 µM; in the assay with K-562 leukemia, 42.3 µM; in the assay on MCF7 breast it was 18.5 µM; in the assay with SK-OV-3 ovarian, 22.4 µM. The GI50 in the assay with EKVX NSCLC was 21.8 µM; with HCT-15 colon, 19.7 µM. The TGI was 42.1 µM in the assay on BT-549 breast; 70.2 µM in the assay with KM12 colon; above 100 µM in the assay on A549 NSCLC; above 100 µM in the assay on K-562 leukemia; above 100 µM with MCF7 breast; above 100 µM in the assay with SK-OV-3 ovarian. Moreover, the values for the TGI in the assay on EKVX NSCLC and in the assay on HCT-15 colon were 61.9 µM and 42.8 µM, respectively.
As for `CC1(C)C2CCC13C(=O)C1OC3(C2)C2C(=O)c3c(O)cccc3C(=O)C12` (configuration not stated), the GI50 in the assay with BT-549 breast was 1.2 µM; in the assay on KM12 colon, 2.6 µM; in the assay on A549 NSCLC it was 1.24 µM; in the assay with K-562 leukemia, 0.703 µM; in the assay with MCF7 breast, 3.37 µM; in the assay with SK-OV-3 ovarian, 10.9 µM. Besides, the values for the GI50 with MDA-MB-231 breast, in the assay on EKVX NSCLC and in the assay on HCT-15 colon were 0.472 µM, 8.37 µM and 0.362 µM, respectively. Further, the TGI in the assay with BT-549 breast came out at 3.34 µM; with KM12 colon it was 14.9 µM; in the assay with A549 NSCLC it was 4.57 µM; with K-562 leukemia, 1.79 µM; with MCF7 breast, 15.4 µM; in the assay on SK-OV-3 ovarian, 23.9 µM. For the same compound, the TGI in the assay on MDA-MB-231 breast was 1.33 µM; in the assay with EKVX NSCLC, 21.4 µM; in the assay on HCT-15 colon it was 0.905 µM.
